Test results: the NIST ThermoML archive (doi:10.1016/j.tca.2006.04.022)
± gives the expanded uncertainty stated by the source.

Conditions: Adiabatic calorimetry

Glass transition temperature: -80.30 ± 0.05 °C
SMILES: CCOS(=O)(=O)[O-].CCn1cc[n+](C)c1 [1-ethyl-3-methylimidazolium ethyl sulfate]
